According to publication PMC7794297:
Several values for one entry are separate records, joined by “and”; a condition that tells them apart may be missing. Identical values can stand only once. Like-named read-outs stand apart in the source and are kept apart here.

Assays:
glucose oxidase (GOx) = glucose oxidase (GOx) (Aspergillus niger, UniProt P13006); assay: Glucose oxidase-directed DCL of building blocks 1-4; set-up: purchased Sigma Aldrich; unit not given here; conditions: blank vs GOx template DCL; GOx 57 μM, Secox 5% mol, 24 h
glucose oxidase (GOx), sequence (P13006 17-605): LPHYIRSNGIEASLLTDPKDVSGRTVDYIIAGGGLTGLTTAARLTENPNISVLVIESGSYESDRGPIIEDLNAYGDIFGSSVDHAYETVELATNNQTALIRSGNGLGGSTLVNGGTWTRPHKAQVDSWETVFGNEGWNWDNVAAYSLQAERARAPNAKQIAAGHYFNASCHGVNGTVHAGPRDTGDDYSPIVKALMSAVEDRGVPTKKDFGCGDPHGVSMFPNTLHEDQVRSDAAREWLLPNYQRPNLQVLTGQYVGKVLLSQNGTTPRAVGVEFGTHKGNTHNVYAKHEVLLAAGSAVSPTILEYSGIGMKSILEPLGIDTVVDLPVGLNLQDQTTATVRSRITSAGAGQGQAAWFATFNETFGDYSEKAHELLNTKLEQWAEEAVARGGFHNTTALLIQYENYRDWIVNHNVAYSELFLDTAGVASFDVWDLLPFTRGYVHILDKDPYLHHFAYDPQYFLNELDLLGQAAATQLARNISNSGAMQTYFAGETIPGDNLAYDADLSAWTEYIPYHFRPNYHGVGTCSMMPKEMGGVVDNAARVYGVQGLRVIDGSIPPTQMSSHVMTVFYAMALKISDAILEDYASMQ
Procedure: The equilibration of the DCL was completed after 24 h (Fig. 9) and the oligomers were identified by HPLC-MS (Supplementary Figs. 4–20). The precise composition of the DCL (with and without GOx), was assessed by measuring the relative peak area (RPA). The normalized change of RPA was used to quantify the protein influence in the final DCL showing the amplification of the dimer of compound 4, that is (4)2 (Fig. 9b). Control experiments were set up to verify that the amplification of the dimer was not due to unspecific binding. Firstly the GOx was replaced by the bovine serum albumin (BSA). A stability study of BSA under the DCL conditions was performed using a fluorescence technique confirming the BSA stability in the DCL experiment (Supplementary Fig. 48)[50].
The DCL was stabilized for 24 h at 6 °C. Then, GOx was removed by ultracentrifugation through an Amicon ultra-filter (100 KDa). HPLC analysis was performed.

[1] = Spermine-templated DCL of building blocks 1-4; conditions: spermine DCL of 1-4
Procedure: (§1) Building blocks 2 and 3 equipped with carboxylate moieties to establish interactions with the protonated amine groups of the spermine were allowed to equilibrate at pH 7.8 and 6 °C (Fig. 8a). As expected in our control experiment, the major component in the absence of spermine was the linear tetramer (2)2(3)2. After the addition of spermine, the linear tetramer “decomposed” in order to form mainly the cyclic tetramer of (2)4, and the (3)2 dimer (Fig. 8a). As it was reported, several studies determined that the spermine was threaded through the macrocycle fixing the configuration to a highly symmetric stereoisomer of (2)4[36]. […] The precise composition of the DCL (with and without spermine), was assessed by measuring the relative peak area (RPA). Indeed, the normalized change of RPA was used to quantify the spermine influence in the outcome (Supplementary Fig. 42)[46]. The same template (spermine) was tested in our reference DCL of four building blocks (1–4) in the absence and presence of Secox (Fig. 8b). […] Additionally, two different templates were tested to confirm the absence of conflict between selenocystine and the templating effect. Spermidine and NADPH were introduced in our 4 building blocks DCL (1–4) in the absence and presence of Secox, leading to the amplification of different species and getting the same results as the non-catalyzed DCLs (Supplementary Figs. 44, 45, Supplementary Tables 7–10, and Supplementary Methods).
The mixture was stabilized in 96 h. […] The mixture was stabilized after 24 h. […] It was stabilized in 24 h. […] DCL was equilibrated in 96 h. DCLs were performed without stirring at 6 °C and analyzed by HPLC-MS.

[2] = Spermidine-templated DCL of building blocks 1-4;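 also: Spermidine-templated dynamic combinatorial library, normalized change of RPA compared between Secox-free and Secox-containing libraries, DCC runs done in triplicate, values given as mean ± SD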
[3] = NADPH-templated DCL of building blocks 1-4;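 also: values are means ± SD of DCC experiments run in triplicate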
[4] = biological target: bovine serum albumin (BSA) (Bos taurus, UniProt P02769); assay: BSA-directed DCL of building blocks 1-4; set-up: purchased Roche; key to NC of RPA: normalized change of relative peak area (RPA) vs blank DCL; conditions: blank vs BSA-DCL; BSA 57 µM, Secox 5% mol, 24 h
bovine serum albumin (BSA), sequence (P02769 25-607): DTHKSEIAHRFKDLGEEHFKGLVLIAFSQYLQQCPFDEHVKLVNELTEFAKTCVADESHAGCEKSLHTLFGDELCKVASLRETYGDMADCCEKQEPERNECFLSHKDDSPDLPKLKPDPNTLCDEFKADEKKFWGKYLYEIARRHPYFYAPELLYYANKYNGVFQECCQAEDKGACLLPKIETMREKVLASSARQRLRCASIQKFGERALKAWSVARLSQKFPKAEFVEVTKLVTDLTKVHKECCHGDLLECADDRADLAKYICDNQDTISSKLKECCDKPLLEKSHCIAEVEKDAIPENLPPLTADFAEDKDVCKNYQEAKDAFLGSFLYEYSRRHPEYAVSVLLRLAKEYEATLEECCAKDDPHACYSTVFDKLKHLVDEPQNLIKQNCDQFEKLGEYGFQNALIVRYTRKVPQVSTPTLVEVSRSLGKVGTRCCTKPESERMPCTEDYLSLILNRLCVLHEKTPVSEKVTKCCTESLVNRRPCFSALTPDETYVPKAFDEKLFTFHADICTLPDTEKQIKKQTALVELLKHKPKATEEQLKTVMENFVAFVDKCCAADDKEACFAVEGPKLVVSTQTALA

[5] = cited from earlier work
[6] = Spermine-templated DCL of building blocks 2 and 3; conditions: spermine DCL of 2 and 3
Procedure: as §1
The DCL was stabilized at 96 h. […] The mixture was stabilized after 24 h. […] The DCL was stabilized at 96 h. […] The DCL was analyzed in 96 h after equilibration. DCLs were performed without stirring at 6 °C and analyzed by HPLC-MS.

[7] = Equilibration of the thiol-disulfide DCL of building blocks 1-4 followed by HPLC-MS; conditions: 190 μM as fifth building block; Tris 20 mM pH 7.8, 6 °C; control 4 days
Procedure: DMSO percentage is 2.5% v/v. […] DCLs were analyzed by HPLC-MS until equilibration without stirring at 6 °C.
Control DCL. […] DMSO percentage is 2.5% v/v. Regarding Secox catalyzed DCL, different stocks of Secox were carried out in order to study the percentages of Secox. […] The DCLs were prepared at 6 °C without stirring and analyzed in several hours until the complete stabilization.

| SMILES | NC of RPA (glucose oxidase (GOx)) | Normalized Change of RPA (NC) ([1]; 0% Secox) | Normalized Change of RPA (NC) ([1]; 5% Secox) | Normalized Change of RPA (NC) ([2]; 0% Secox) | Normalized Change of RPA (NC) ([2]; 5% Secox) | Normalized Change of RPA (NC) ([3]; 0% Secox) | Normalized Change of RPA (NC) ([3]; 5% Secox) | NC of RPA [4] | pKa ([5]; Cys thiol group) | Normalized Change of RPA (NC) ([6]; Secox) | Normalized Change of RPA (NC) ([6]; no Secox) | pKa ([5]; Sec) | DCL equilibration time [7] |
| --- | --- | --- | --- | --- | --- | --- | --- | --- | --- | --- | --- | --- | --- |
| O=C(O)c1cc2cc(c1)SSc1cc(cc(C(=O)O)c1)SSc1cc(cc(C(=O)O)c1)SSc1cc(cc(C(=O)O)c1)SS2 [(1)4] | -0,86 | -0,14 | -0,12 | -0,47 | -0,43 | -0,84 | -0,88 | 0,14 |  |  |  |  |  |
| N[C@@H](CS)C(=O)O [Cys, cysteine] |  |  |  |  |  |  |  |  | 8.22 and ~ 8.22 |  |  |  |  |
| O=C(O)c1cccc(SSc2cc(SSc3ccccc3)cc(C(=O)O)c2)c1 [(3)(1)(4)] | 0,54 | -0,51 | -0,51 | -1,00 | -1,00 | -0,82 | -0,76 | 2,28 |  |  |  |  |  |
| O=C(O)c1cccc(SSc2cc(SSc3cc(SSc4cccc(C(=O)O)c4)cc(C(=O)O)c3)cc(C(=O)O)c2)c1 [(1)2(3)2] | -0,36 | 0,46 | 0,38 | 0,34 | 0,27 | -0,06 | -0,06 | 0,63 |  |  |  |  |  |
| O=C(O)c1cccc(SSc2cccc(C(=O)O)c2)c1 [(3)2, 3,3'-disulfanediyldibenzoic acid] | -0,35 | 0,49 | 0,49 | 0,51 | 0,51 | 0,56 | 0,49 | -0,64 |  | 0.1 | 0.1 |  |  |
| O=C(O)c1cc2cc(c1)SSc1cc(cc(C(=O)O)c1)SSc1cc(cc(C(=O)O)c1)SS2 [(1)3] | -0,21 | -0,65 | -0,66 | -0,42 | -0,44 | -0,70 | -0,68 | -0,19 |  |  |  |  |  |
| O=C(O)c1cc(SSc2ccccc2)c(C(=O)O)cc1SSc1ccccc1 [(2)(4)2] | 0,19 | 0,08 | 0,08 | 0,06 | 0,04 | -0,16 | -0,18 | 1,30 |  |  |  |  |  |
| O=C(O)c1cccc(SSc2cc(C(=O)O)c(SSc3cc(C(=O)O)c(SSc4cccc(C(=O)O)c4)cc3C(=O)O)cc2C(=O)O)c1 [(2)2(3)2] | -1,00 | -1,00 | -1,00 | -1,00 | -1,00 | -0,69 | -0,64 | -1,00 |  |  |  |  |  |
| O=C(O)c1cccc(SSc2cc(C(=O)O)c(SSc3cccc(C(=O)O)c3)cc2C(=O)O)c1 [(2)(3)2] | 0,72 | -0,26 | -0,28 | -0,11 | -0,19 | 2,41 | 2,37 | -1,00 |  |  |  |  |  |
| O=C(O)c1cc(SSc2cc(C(=O)O)c(SSc3ccccc3)cc2C(=O)O)c(C(=O)O)cc1SSc1ccccc1 [(2)2(4)2] | -1,00 | -1,00 | -1,00 | -1,00 | -1,00 | 0,13 | 0,11 | 0,31 |  |  |  |  |  |
| O=C(O)c1cc(SSc2ccccc2)cc(SSc2cc(C(=O)O)c(SSc3ccccc3)cc2C(=O)O)c1 [(1)(2)(4)2] | -1,00 | -1,00 | -1,00 | -1,00 | -1,00 | -1,00 | -1,00 | 2,84 |  |  |  |  |  |
| O=C(O)c1cc(SSc2ccccc2)cc(SSc2ccccc2)c1 [(1)(4)2] |  |  |  |  |  |  |  | 45,89 |  |  |  |  |  |
| N[C@@H](C[SeH])C(=O)O [Sec, selenocysteine] |  |  |  |  |  |  |  |  |  |  |  | 5.43 and ~ 5.43 |  |
| N[C@@H](CSSC[C@H](N)C(=O)O)C(=O)O [Cysox, cystine] |  |  |  |  |  |  |  |  |  |  |  |  | 3 days |
| O=C(O)c1cccc(SSc2cc(C(=O)O)c(SSc3ccccc3)cc2C(=O)O)c1 [(2)(3)(4)] | -0,32 | -0,75 | -0,74 | -0,64 | -0,65 | -0,12 | -0,12 | 0,95 |  |  |  |  |  |
| O=C(O)c1cccc(SSc2cc(SSc3cccc(C(=O)O)c3)cc(C(=O)O)c2)c1 [(1)(3)2] | -0,46 | 1,19 | 1,25 | 0,83 | 0,86 | 1,24 | 1,23 | -0,75 |  |  |  |  |  |
